Data: PMC11325505, “Nitrogen-Containing Flavonoids—Preparation and Biological Activity” (ACS Omega, 2024)
≈ marks a conversion by molar mass, not a printed value. Where two headings read alike, the source gives them in different places.

Legend:
[1] = test system: tumor necrosis factor (TNF-α) production by RAW 264.7 stimulated by LPS; assay: Anti-inflammatory activity: TNF-α production by LPS-stimulated macrophages; format: cell-based, Murine; settings: Mus musculus, RAW264.7; LPS-stimulated RAW 264.7; average of four repetitions ± SEM; read-out: TNFα production IC50
Description: The anti-inflammatory activity of flavonoids was evaluated as their ability to decrease the production of signaling molecules that mediate inflammation, such as nitric oxide (NO), tumor necrosis factor (TNF-α), and interleukin 6 (IL-6), in LPS-stimulated macrophages.
The anti-inflammatory activity of the tested flavonoids was determined as the ability to reduce the production of nitric oxide (NO), tumor necrosis factor (TNF-α), and interleukin 6 (IL-6) by RAW 264.7 stimulated by LPS, as previously described.[39],[40] Briefly, 1 × 10^6 cells/mL was seeded into the 96-well plate (100 μL/well). After 48 h, LPS (100 ng/mL) and the samples (3–100 μM) were added to the MEM medium. After 24 h, the medium was mixed with Griess reagent (0.04 g/mL) at a 1:1 ratio. The absorbance was measured after 15 min at 540 nm. Cell viability was determined using the resazurin assay.
To determine TNF-α levels, cells were precultivated with the tested compounds for 24 h. After 2 h of incubation with LPS, the medium was diluted 1:10 with ELISA diluent. To determine the level of IL-6, cells were cultivated for 6 h with LPS and the tested compounds. Cytokine production was determined using an uncoated ELISA performed according to the manufacturer’s instructions.

[2] = test system: MRSA 3596; assay: Mode of antimicrobial action with erythromycin or gentamicin, ermA- and aadD-positive strain; format: cell-based, S. aureus; settings: for effect (mode of action with erythromycin) / effect (mode of action with gentamicin) / FIC (Fractional Inhibitory Concentration Index): MRSA 3596; for MIC, Gentamicin [1 mg/L] yes / MIC: MRSA 3596 (aadD); for MIC, Gentamicin [1 mg/L] yes: with gentamicin 1 mg/L; for MIC, erythromycin [1 mg/L] yes / MIC, erythromycin [1 mg/L] no: MRSA 3596 (ermA); for MIC, erythromycin [1 mg/L] yes: with erythromycin 1 mg/L; for MIC, erythromycin [1 mg/L] no: without erythromycin, Table 4; for MIC: Staphylococcus aureus, 24 h, read-out: MIC, Gentamicin [1 mg/L] no, without gentamicin, Table S6
Description: (§1) Erythromycin is a macrolide antibiotic that inhibits proteosynthesis by binding to the 50S subunit of the ribosome. In Staphylococcus species, resistance to erythromycin is associated with the presence of methyltransferases (encoded by erm genes) that alter the ribosomal target site. Another typical mechanism of resistance to erythromycin is the presence of an ATP-dependent efflux pump encoded by the msr(A) gene or a major facilitator superfamily (MFS) pump encoded by the lmrS gene. Both efflux pumps reduce the concentration of erythromycin in the cell below the therapeutic dose by transporting it across the membrane to the extracellular space. Another erythromycin resistance gene is the mph(C) gene, the product of which is a phosphotransferase that alters the structure of macrolide antibiotics. To elucidate the mechanism of erythromycin resistance modulation in S. aureus, further tests were performed with the strains MRSA 331 and MRSA 3596, which inactivate erythromycin via a single mechanism (ermC and ermA, respectively). […] Therefore, if the activity was not strain-specific, it would be necessary to consider the effect of the derivatives on this pump (Table 3).
Among the mechanisms of resistance to gentamicin previously described in S. aureus, the presence of enzymes that alter the structure of aminoglycosides is crucial. These enzymes can transfer nucleotides, phosphates, or acetyls to various −OH or −NH2 groups of gentamicin, preventing its subsequent interaction with the cellular target, i.e., the 30S ribosomal subunit. The bifunctional aminoglycoside-modifying enzyme with acetylation and phosphotransferase activities encoded by the gene aac(6’)/aph(2’), 4′,4″ adenyltransferase encoded by the aadD gene, and aminoglycoside O-phosphotransferase encoded by the gene aph(3′) are the most important.[37] […] For this reason, further testing continued using strains MRSA 3596 and MRSA 1584, which inactivate gentamicin only by a single mechanism (aadD and aac(6’)-aph(2’’), respectively).
(§2) Sensitization of multidrug-resistant clinical bacterial strains was performed according to ref[15]. Antibiotic cutoff concentration was chosen according to the European Committee on Antimicrobial Susceptibility Testing (EUCAST, Clinical breakpoints–bacteria, ver. 11.0). The 200 μM concentration of the derivatives was chosen as the highest test concentration. The absorbance detected at 600 nm was then used to estimate the number of viable cells after 24 h of incubation at 37 °C and 120 rpm.
(§3) Experiments were performed with the respective number of replicates indicated in each figure/table. MIC was determined as IC70. Both IC70 and IC50 values were calculated using the following nonlinear regression in the software GraphPad Prism: […]

[3] = test system: Methicilin-Resistant S. aureus 331 Strain; assay: Mode of antimicrobial action with erythromycin, ermC-positive strain; format: cell-based; settings: for MIC, erythromycin [1 mg/L] yes / MIC, erythromycin [1 mg/L] no: MRSA 331 (ermC); for MIC, erythromycin [1 mg/L] yes: with erythromycin 1 mg/L; for MIC, erythromycin [1 mg/L] no: without erythromycin; for FIC (Fractional Inhibitory Concentration Index): with erythromycin
Description: as §1, §2, §3

[4] = test system: human dermal fibroblasts (HDF); assay: Cytotoxicity (resazurin assay), fibroblasts; format: cell-based; settings: Homo sapiens, Fibroblast, 72 h, read-out: HDF IC50 (concentration that halved the viability)
Description: The cytotoxicity of the prepared derivatives was evaluated by their ability to decrease the viability of immortalized human keratinocytes (HaCaT) and human dermal fibroblasts (HDF).
100 μL of cell suspension containing 10^5 cells/mL was pipetted into a 96-well plate. After 24 h incubation, the tested compounds were added in the concentration range 12.5–200 μM. After 72 h incubation, the cell viability was tested by standard resazurin assay.[41] Briefly, the cells were washed with PBS and incubated with 100 μL of resazurin solution (0.025 mg/mL) for 2 h. The fluorescence was measured at a wavelength of 560 nm excitation/590 nm emission.

[5] = test system: transmembrane efflux pumps; assay: Ethidium bromide accumulation assay; format: cell-based, S. aureus MSSA 2
Description: The application of antibiotics often leads to oxidative stress in bacteria, which triggers the efflux pump systems that contribute to antimicrobial resistance.[34] Therefore, modulation of the efflux system has been proposed as another plausible target of derivatives. The efflux pump inhibitor carbonyl cyanide 3-chlorophenylhydrazone (CCCP) was used as a comparator in our assay. Its action destroys the proton-motive force at the membrane so that the efflux pump cannot transport substrates out of the cell. One such universal substrate is ethidium bromide, the accumulation of which in the cell can be measured using fluorescence.
The accumulation assay was performed according to previously published methods with minor modifications.[15],[42] Briefly, a bacterial culture of S. aureus MSSA 2 cultured overnight in the presence of colistin (4 mg/L) to induce oxidative stress and activate efflux system[34] was diluted in PBS to OD600 nm = 0.6. The suspension was centrifuged (13,000 × g; 3 min), resuspended in fresh PBS, and distributed into the wells of a black 96-well microtiter plate (ThermoFisher Scientific). Samples were diluted with EtBr solution (4 μg/mL). 50 μL of the mixture was added to 50 μL of the bacterial suspension. The reaction was monitored using SpectraMax iD5Multi-Mode Microplate Reader (ex/em = 530/600 nm) every 60 s for 60 min.

[6] = 72 h incubation, resazurin, average of three repetitions ± SEM

Structure (SMILES)	IC50 [1] [µM]	effect (mode of action with erythromycin) [2]	effect (mode of action with gentamicin) [2]	MIC, Gentamicin [1 mg/L] yes [2] [µM]	MIC, erythromycin [1 mg/L] yes [2] [µM]	MIC, erythromycin [1 mg/L] no [2] [µM]	effect (mode of action with erythromycin) ([2]; listed as quercetin)	FIC (Fractional Inhibitory Concentration Index) ([2]; with erythromycin)	FIC (Fractional Inhibitory Concentration Index) ([2]; with gentamicin)	MIC [2] [µM]	MIC, erythromycin [1 mg/L] yes [3] [µM]	MIC, erythromycin [1 mg/L] no [3] [µM]	FIC (Fractional Inhibitory Concentration Index) ([3]; MRSA 331)	IC50 [4] [µM]	efflux inhibition (ethidium bromide accumulation), in words ([5]; compared with comparator CCCP, concentrations 25–100 μM)	IC50 [4, 6] [µM]	accumulation of ethidium bromide compared to 100 μM CCCP ([5]; compound at 25 μM, relative to CCCP (100 μM)) [%]	effect (mode of action with erythromycin) ([3]; MRSA 331)
O=c1c(O)c(-c2ccc(O)c(O)c2)oc2cc(O)cc(O)c12 [compound 4, quercetin, reference compound]	55.1 ± 2.1	synergy (Fractional Inhibitory Concentration Index (FIC) < 0.5 indicates synergism)	synergy (Fractional Inhibitory Concentration Index (FIC) < 0.5 indicates synergism)	54.5 ± 0.6 (≈ 16.5 µg/mL)	58.6 ± 1.2 (≈ 17.7 µg/mL)	178.1 ± 2.7 (≈ 53.8 µg/mL)	synergistic activity	0.33 ± 0.01	0.31 ± 0.01	178 ± 2.7 (≈ 53.8 µg/mL)	190.9 ± 0.5 (≈ 57.7 µg/mL)	193.1 ± 1.0 (≈ 58.4 µg/mL)	0.99 ± 0.01	80 ± 1.5	efflux inhibitors			
O=c1c(O)c(-c2ccc(O)c(O)c2)oc2c(Nc3ccc(F)cc3)c(O)cc(O)c12 [compound 5, 2-(3,4-Dihydroxyphenyl)-8-(4-fluoroanilino)-3,5,7-trihydroxy-4H–1-benzopyran-4-one]	> 50			> 200						> 200						95.9 ± 6.1	75	
O=c1c(O)c(-c2ccc(O)c(O)c2)oc2c(Nc3ccc(C(F)(F)F)cc3)c(O)cc(O)c12 [compound 8, 2-(3,4-Dihydroxyphenyl)-8-(4-(trifluoromethyl)anilino)-3,5,7-trihydroxy-4H–1-benzopyran-4-one]	> 50	synergy (Fractional Inhibitory Concentration Index (FIC) < 0.5 indicates synergism)	synergy (Fractional Inhibitory Concentration Index (FIC) < 0.5 indicates synergism)	5.7 ± 0.1 (≈ 2.63 µg/mL)	8.4 ± 1.1 (≈ 3.88 µg/mL)	37.9 ± 0.1 (≈ 17.5 µg/mL)				37.9 ± 0.1 (≈ 17.5 µg/mL)	15.9 ± 0.8 (≈ 7.34 µg/mL)	6.9 ± 0.2 (≈ 3.18 µg/mL)		111.9 ± 0.5				antagonism (≥2 indicates antagonism)
COc1ccc(Nc2c(O)cc(O)c3c(=O)cc(-c4ccc(O)c(O)c4)oc23)cc1 [compound 12, 2-(3,4-Dihydroxyphenyl)-8-(4-methoxyanilino)-5,7-dihydroxy-4H–1-benzopyran-4-one]	> 50	synergy (Fractional Inhibitory Concentration Index (FIC) < 0.5 indicates synergism)	synergy (Fractional Inhibitory Concentration Index (FIC) < 0.5 indicates synergism)	31.4 ± 1.0 (≈ 12.8 µg/mL)	20.0 ± 0.6 (≈ 8.15 µg/mL)	53.6 ± 0.5 (≈ 21.8 µg/mL)		0.37 ± 0.01	0.34 ± 0.01	91 ± 0.9 (≈ 37.1 µg/mL)	54.8 ± 0.4 (≈ 22.3 µg/mL)	54.4 ± 2.1 (≈ 22.2 µg/mL)	1.01 ± 0.05			35.5 ± 1.5		
O=c1cc(-c2ccc(O)c(O)c2)oc2c(Nc3ccccc3)c(O)cc(O)c12 [compound 13, 2-(3,4-Dihydroxyphenyl)-8-(anilino)-5,7-dihydroxy-4H–1-benzopyran-4-one]	> 25		synergy (Fractional Inhibitory Concentration Index (FIC) < 0.5 indicates synergism)	23.2 ± 0.4 (≈ 8.75 µg/mL)					0.25 ± 0.01	93 ± 0.6 (≈ 35.1 µg/mL)						58.3 ± 2.7		
O=c1cc(-c2ccc(O)c(O)c2)oc2c(Nc3ccc(C(F)(F)F)cc3)c(O)cc(O)c12 [compound 14, 2-(3,4-Dihydroxyphenyl)-8-(4-(trifluoromethyl)anilino)-5,7-dihydroxy-4H–1-benzopyran-4-one]	> 25	antagonism (≥2 indicates antagonism)		> 200	29.9 ± 1.4 (≈ 13.3 µg/mL)	14.4 ± 0.1 (≈ 6.41 µg/mL)		2.07 ± 0.11		> 200	27.0 ± 1.5 (≈ 12 µg/mL)	27.0 ± 5.1 (≈ 12 µg/mL)	1.00 ± 0.25	29.9 ± 1.1				
O=c1cc(-c2ccc(O)c(O)c2)oc2c(Nc3cccc(F)c3)c(O)cc(O)c12 [compound 15, 2-(3,4-Dihydroxyphenyl)-8-(3-fluoroanilino)-5,7-dihydroxy-4H–1-benzopyran-4-one]	> 25		synergy (Fractional Inhibitory Concentration Index (FIC) < 0.5 indicates synergism)	5.3 ± 0.1 (≈ 2.1 µg/mL)					0.21 ± 0.1	25.7 ± 0.4 (≈ 10.2 µg/mL)						30.9 ± 2.1		
